The assay concerns BDF1 mice, P388 leukemia ip, median survival T/C. Nature of the assay: NCI In Vivo Anticancer Drug Screen. Data for tumor model P388 Leukemia (intraperitoneal) in B6D2F1 (BDF1) mice. To be noted: endpoint: median survival time, higher = longer survival. The method, then:
The antitumor activity of compounds was measured in mice bearing transplantable tumors. Survival or tumor size were measured and the results are expressed as the measurement made in the treated group (T) divided by the measurement made in the vehicle treated control group (C). The tumor model used in this assay is P388 Leukemia (intraperitoneal) in B6D2F1 (BDF1) mice

The mark [1] stands for this setting: dose: 25.0 mg/kg/injection, schedule: Q01DX009 (ip), vehicle: saline.
Setting [2] is: dose: 50.0 mg/kg/injection, schedule: Q01DX009 (ip), vehicle: saline.
Setting [3] is: dose: 100.0 mg/kg/injection, schedule: Q01DX009 (ip), vehicle: Klucel (hydroxypropylcellulose) (HPC).
[4] abbreviates: dose: 100.0 mg/kg/injection, schedule: Q01DX009 (ip), vehicle: saline with Tween-80.
Where [5] appears, read: dose: 200.0 mg/kg/injection, schedule: Q01DX009 (ip), vehicle: Klucel (hydroxypropylcellulose) (HPC).
Setting [6] is: dose: 200.0 mg/kg/injection, schedule: Q01DX009 (ip), vehicle: saline with Tween-80.
The mark [7] stands for this setting: dose: 100.0 mg/kg/injection, schedule: Q04DX003 (ip), vehicle: Klucel (hydroxypropylcellulose) (HPC).
The mark [8] stands for this setting: dose: 200.0 mg/kg/injection, schedule: Q04DX003 (ip), vehicle: Klucel (hydroxypropylcellulose) (HPC).
The mark [9] stands for this setting: dose: 400.0 mg/kg/injection, schedule: Q04DX003 (ip), vehicle: Klucel (hydroxypropylcellulose) (HPC).
Setting [10] is: dose: 50.0 mg/kg/injection, schedule: Q01DX009 (ip), vehicle: saline with Tween-80.

Several values for one entry are separate records, joined by “and”; a condition that tells them apart may be missing. Identical values can stand only once. Inconclusive results and toxic doses are left out.

In the case of `O=C(Nc1ccc(CCNC2=NCCN2)cc1)c1ccc(C(=O)Nc2ccc(CCNC3=NCCN3)cc2)cc1`, the T/C reads like this: (dose: 1.0 mg/kg/injection, schedule: Q01DX009 (ip), vehicle: saline) 106 % of control; (dose: 2.0 mg/kg/injection, schedule: Q01DX009 (ip), vehicle: saline) 106 % of control; (dose: 8.2 mg/kg/injection, schedule: Q01DX009 (ip), vehicle: saline) 199 % of control; (dose: 12.5 mg/kg/injection, schedule: Q01DX009 (ip), vehicle: saline) 226 % of control and 254 % of control; (dose: 18.0 mg/kg/injection, schedule: Q01DX009 (ip), vehicle: saline) 226 % of control; under setting [1], 156 % of control. In addition, under setting [2], the T/C is 122 % of control.
Turning to `COC1=CC(=O)CC(C)C12Oc1c(Cl)c(OC)cc(OC)c1C2=O` (configuration not stated), the T/C was 100 % of control under setting [3]; 100 % of control under setting [4]; 109 % of control under setting [5]; 100 % of control under setting [6]; 100 % of control (dose: 400.0 mg/kg/injection, schedule: Q01DX009 (ip), vehicle: Klucel (hydroxypropylcellulose) (HPC)); 109 % of control (dose: 400.0 mg/kg/injection, schedule: Q01DX009 (ip), vehicle: saline with Tween-80).
Regarding `COc1cc2cc(c1Cl)NC(=O)/C=C/C(C)=C/[C@H](C)[C@@H]1C[C@@](O)(NC(=O)O1)[C@H](OC)C=C/C=C(\C)C2`, the T/C by setting is: (dose: 1.6 micrograms/kg/injection, schedule: Q01DX009 (ip), vehicle: saline + alcohol) 104 % of control; (dose: 3.1 micrograms/kg/injection, schedule: Q01DX009 (ip), vehicle: saline + alcohol) 95 % of control; (dose: 6.2 micrograms/kg/injection, schedule: Q01DX009 (ip), vehicle: saline + alcohol) 87 % of control; (dose: 25.0 micrograms/kg/injection, schedule: Q01DX009 (ip), vehicle: saline + alcohol) 108 % of control; (dose: 50.0 micrograms/kg/injection, schedule: Q01DX009 (ip), vehicle: saline + alcohol) 120 % of control; (dose: 100.0 micrograms/kg/injection, schedule: Q01DX009 (ip), vehicle: saline + alcohol) 120 % of control. In addition, the T/C (dose: 200.0 micrograms/kg/injection, schedule: Q01DX009 (ip), vehicle: saline + alcohol) is 104 % of control.
Consider `COC(=O)c1ccc(C(=O)O)[n+]([O-])c1`, for which the T/C was 96 % of control (dose: 25.0 mg/kg/injection, schedule: Q01DX009 (ip), vehicle: Klucel (hydroxypropylcellulose) (HPC)); 100 % of control (dose: 25.0 mg/kg/injection, schedule: Q04DX003 (ip), vehicle: Klucel (hydroxypropylcellulose) (HPC)); 104 % of control (dose: 50.0 mg/kg/injection, schedule: Q04DX003 (ip), vehicle: Klucel (hydroxypropylcellulose) (HPC)); 88 % of control under setting [3]; 113 % of control under setting [7]; 89 % of control under setting [5]. The T/C is 95 % of control under setting [8] and 87 % of control under setting [9].
Consider `O=C(Nc1ccc(F)cc1)C(F)(F)F`, for which the T/C was 106 % of control under setting [10], 98 % of control under setting [4] and 105 % of control under setting [6].
On to `CCOC(=O)CCN1CCCCCC1`, for which the T/C was 91 % of control under setting [1]; 120 % of control under setting [2]; 95 % of control (dose: 100.0 mg/kg/injection, schedule: Q01DX009 (ip), vehicle: saline); 100 % of control (dose: 100.0 mg/kg/injection, schedule: Q04DX003 (ip), vehicle: saline); 92 % of control (dose: 200.0 mg/kg/injection, schedule: Q01DX009 (ip), vehicle: saline); 100 % of control (dose: 200.0 mg/kg/injection, schedule: Q04DX003 (ip), vehicle: saline). For the same compound, the T/C (dose: 400.0 mg/kg/injection, schedule: Q04DX003 (ip), vehicle: saline) is 118 % of control.
With `COc1cccc(C(O)c2ccncc2C)c1OC` (configuration not stated), the T/C runs as follows: (dose: 12.5 mg/kg/injection, schedule: Q04DX003 (ip), vehicle: water) 103 % of control; (dose: 25.0 mg/kg/injection, schedule: Q04DX003 (ip), vehicle: water) 97 % of control; (dose: 50.0 mg/kg/injection, schedule: Q04DX003 (ip), vehicle: water) 102 % of control; (dose: 100.0 mg/kg/injection, schedule: Q04DX003 (ip), vehicle: water) 112 % of control; (dose: 200.0 mg/kg/injection, schedule: Q04DX003 (ip), vehicle: water) 97 % of control.
With `O=C1C=CCCCC1`, the T/C (dose: 25.0 mg/kg/injection, schedule: Q01DX009 (ip), vehicle: saline with Tween-80) is 109 % of control; the T/C (dose: 25.0 mg/kg/injection, schedule: Q04DX003 (ip), vehicle: saline with Tween-80) is 103 % of control; the T/C under setting [10] is 109 % of control and 112 % of control; the T/C (dose: 50.0 mg/kg/injection, schedule: Q04DX003 (ip), vehicle: saline with Tween-80) is 88 % of control; the T/C under setting [4] is 104 % of control; the T/C (dose: 100.0 mg/kg/injection, schedule: Q04DX003 (ip), vehicle: saline with Tween-80) is 100 % of control.
For the compound `Brc1c(-c2ccccc2)cc(-c2ccccc2)cc1-c1ccccc1`, the T/C by setting is: under setting [7], 108 % of control; under setting [8], 95 % of control; under setting [9], 95 % of control.

(Values after PubChem BioAssay AID328 (DTP/NCI, 2004).)
